Results as given in patent publication US12419900B2, “Induction of synthetic lethality with epigenetic therapy” (The Johns Hopkins University, priority 2017, dated 2025).

What was measured:
[1] = test system: DU145 prostate cancer cells; experiment: Alamar blue cell viability and growth, alisertib x decitabine dose matrix; type: cell-based
Protocol: DU145 prostate cancer cells and A549 lung cancer cells were treated with varying concentrations (0 nM, 10 nM, 50 nM, and 100 nM) of alisertib in addition to varying concentrations of decitabine (0 nM, 50 nM, 100 nM, and 250 nM). Representative data are shown in FIGS. 2A and 2B, as well as the Tables below. […] In each panel, a dose response of each drug alone and in combination was used in Alamar blue cell viability assays. […] Formal synergy analyses were performed using the Bliss independence score (where values greater than zero indicate greater than additive effect). […] The graph of FIG. 2A is a growth curve of the DU145 prostate cancer cells for the agents alone (decitabine and alisertib separately), a vehicle control, and the agents in combination (decitabine and alisertib together). […] Likewise, the graph of FIG. 2B is a growth curve of the A549 lung cancer cells for the agents alone (decitabine and alisertib separately), a vehicle control, and the agents in combination (decitabine and alisertib together). […] The synergy analysis of the combination of decitabine and alisertib was evaluated in a series of 18 cancer cell lines (9 prostate, 1 ovarian, 1 lung, 2 colon, 2 central nervous system, and 3 breast cancer cell lines) and 2 non-cancer cell models.

A549 lung cancer cells = experiment: as above; type: cell-based; conditions: Homo sapiens, DAC 0 nM, read-out: Percent Growth Inhibition
Protocol: DU145 prostate cancer cells and A549 lung cancer cells were treated with varying concentrations (0 nM, 10 nM, 50 nM, and 100 nM) of alisertib in addition to varying concentrations of decitabine (0 nM, 50 nM, 100 nM, and 250 nM). Representative data are shown in FIGS. 2A and 2B, as well as the Tables below. […] Formal synergy analyses were performed using the Bliss independence score (where values greater than zero indicate greater than additive effect). […] The graph of FIG. 2A is a growth curve of the DU145 prostate cancer cells for the agents alone (decitabine and alisertib separately), a vehicle control, and the agents in combination (decitabine and alisertib together). […] Likewise, the graph of FIG. 2B is a growth curve of the A549 lung cancer cells for the agents alone (decitabine and alisertib separately), a vehicle control, and the agents in combination (decitabine and alisertib together). […] The synergy analysis of the combination of decitabine and alisertib was evaluated in a series of 18 cancer cell lines (9 prostate, 1 ovarian, 1 lung, 2 colon, 2 central nervous system, and 3 breast cancer cell lines) and 2 non-cancer cell models.

primary hepatocytes = experiment: Cell viability and growth, alisertib x decitabine dose matrix; type: cell-based; conditions: Hepatocyte, DAC 0 nM, read-out: Percent Growth Inhibition
Protocol: The synergy analysis of the combination of decitabine and alisertib was evaluated in a series of 18 cancer cell lines (9 prostate, 1 ovarian, 1 lung, 2 colon, 2 central nervous system, and 3 breast cancer cell lines) and 2 non-cancer cell models. A final cumulative Bliss synergy score was calculated based on the sum of the synergy values from each of the 16 combinations of 0 nM, 10 nM, 50 nM, and 100 nM of alsertib together with 0 nM, 50 nM, 100 nM, and 250 nM of decitabine.

DU145 xenograft tumor = experiment: In vivo xenograft study of DU145, decitabine and alisertib; set-up: species or system nude mice
Protocol: Using in vivo xenograft studies of the DU145 prostate cancer cell line, the effect was explored of the treatment of two dose levels of alisertib alone or in combination with decitabine using two different treatment time schedules over a period of seven weeks. First, nude mice were inoculated with DU145 cells that were allowed to incubate for 10-12 days to establish xenograft tumor. The inoculated mice were then treated concomitantly with both a high dose and a low dose of alisertib and decitabine in the first two weeks or primed with decitabine alone for two weeks followed by alisertib alone in the first cycle. The dose of decitabine was held constant at 0.75 mg/kg and given with either low-dose (15 mg/kg) or high-dose (25 mg/kg) alisertib, as indicated in FIG. 4. The cumulative number of doses of decitabine and alisertib was the same in all combination treatment arms in both schedules.

[2] = In vivo toxicity profile of treated mice; conditions: FIGS. 7D and 7E
Source text: The toxicity profile of the treated mice was observed, and the animals were weighed over the course of the experiment.

[3] = test system: residual xenograft tumors; experiment: KI-67 and Caspase 3A staining of residual xenograft tumors; type: in vivo, nude mice; conditions: decitabine pre-treatment experiment
Source text: The proliferative index and apoptotic fraction in residual xenograft tumors from the decitabine pre-treatment experiment was then examined. Sample cells from each of the vehicle control, decitabine pre-treatment alone, alisertib alone, and decitabine pretreatment in combination with alisertib were stained with either KI-67 or Caspase 3A.

DNMT3B = experiment: Western Blot in DU145 cells; type: cell-based; conditions: 100 nM decitabine, 100 nM alisertib
Protocol: DNA methyltransferase enzymes comprise a family of enzymes including DNMT1, DNMT3A, and DNMT3B. […] In this study, Western Blot analyses for DNMT3B were performed on DU145 cell tissue sample treated with vehicle control; 100 nM alisertib alone; 100 nM decitabine alone; and 100 nM of decitabine in combination with 100 nM of alisertib.

DNMT1 = experiment: Protein levels in DU145 cells (data not shown); type: cell-based
DNMT3A = experiment: Protein levels in DU145 cells (data not shown); type: cell-based
Satellite 2 sequences = experiment: Bisulfite genomic sequencing of repetitive elements; type: cell-based; conditions: DU145; vehicle control 45.09%

Q: With `COc1cc(Nc2ncc3c(n2)-c2ccc(Cl)cc2C(c2c(F)cccc2OC)=NC3)ccc1C(=O)O` [alisertib] as the molecule, how does the “growth inhibition of DU-145 cells in combination with decitabine” value ([1]; Aurora kinase inhibitor + decitabine) read?
A: synergistic growth inhibition

Q: What about the inhibition at 0.01 µM ([1]; Homo sapiens, DU-145, DU145, DAC 0 nM, Alisertib 10 nM, read-out: Percent Growth Inhibition) of the same molecule?
A: 0%

Q: What about the inhibition at 0.05 µM ([1]; Homo sapiens, DU-145, DU145, DAC 0 nM, Alisertib 50 nM, read-out: Percent Growth Inhibition) of the same molecule?
A: 0%

Q: And the inhibition at 0.1 µM ([1]; Homo sapiens, DU-145, DU145, DAC 0 nM, Alisertib 100 nM, read-out: Percent Growth Inhibition)?
A: 2%

Q: What about the inhibition at 0.01 µM (A549 lung cancer cells; Alisertib 10 nM) of the same molecule?
A: 0%

Q: What about the inhibition at 0.05 µM (A549 lung cancer cells; Alisertib 50 nM) of the same molecule?
A: 0%

Q: What about the inhibition at 0.1 µM (A549 lung cancer cells; Alisertib 100 nM) of the same molecule?
A: 1%

Q: And the inhibition at 0.01 µM (primary hepatocytes; Alisertib 10 nM)?
A: 10%

Q: What about the inhibition at 0.05 µM (primary hepatocytes; Alisertib 50 nM) of the same molecule?
A: 21%

Q: And the inhibition at 0.1 µM (primary hepatocytes; Alisertib 100 nM)?
A: 15%

Q: And the “Fold Change in Tumor Size, Mean” value (DU145 xenograft tumor; Alisertib high dose 25 mg/kg alone, week 0)?
A: 1

Q: And the “Fold Change in Tumor Size, Mean” value (DU145 xenograft tumor; Alisertib high dose 25 mg/kg alone, week 1)?
A: 1.69

Q: What about the “Fold Change in Tumor Size, Mean” value (DU145 xenograft tumor; Alisertib high dose 25 mg/kg alone, week 2) of the same molecule?
A: 2.35

Q: And the “Fold Change in Tumor Size, Mean” value (DU145 xenograft tumor; Alisertib high dose 25 mg/kg alone, week 3)?
A: 3.16

Q: What about the “Fold Change in Tumor Size, Mean” value (DU145 xenograft tumor; Alisertib high dose 25 mg/kg alone, week 4) of the same molecule?
A: 5.08

Q: What about the “Fold Change in Tumor Size, Mean” value (DU145 xenograft tumor; Alisertib high dose 25 mg/kg alone, week 5) of the same molecule?
A: 6.47

Q: What about the “Fold Change in Tumor Size, Mean” value (DU145 xenograft tumor; Alisertib high dose 25 mg/kg alone, week 6) of the same molecule?
A: 8.46

Q: And the “Fold Change in Tumor Size, Mean” value (DU145 xenograft tumor; Alisertib high dose 25 mg/kg alone, week 7)?
A: 9.98

Q: What about the “Fold Change in Tumor Size, Mean” value (DU145 xenograft tumor; Alisertib low dose 15 mg/kg alone, week 0) of the same molecule?
A: 1

Q: And the “Fold Change in Tumor Size, Mean” value (DU145 xenograft tumor; Alisertib low dose 15 mg/kg alone, week 1)?
A: 1.31

Q: And the “Fold Change in Tumor Size, Mean” value (DU145 xenograft tumor; Alisertib low dose 15 mg/kg alone, week 2)?
A: 2.25

Q: And the “Fold Change in Tumor Size, Mean” value (DU145 xenograft tumor; Alisertib low dose 15 mg/kg alone, week 3)?
A: 2.96

Q: And the “Fold Change in Tumor Size, Mean” value (DU145 xenograft tumor; Alisertib low dose 15 mg/kg alone, week 4)?
A: 4.33

Q: What about the “Fold Change in Tumor Size, Mean” value (DU145 xenograft tumor; Alisertib low dose 15 mg/kg alone, week 5) of the same molecule?
A: 5.12

Q: What about the “Fold Change in Tumor Size, Mean” value (DU145 xenograft tumor; Alisertib low dose 15 mg/kg alone, week 6) of the same molecule?
A: 6.02

Q: And the “Fold Change in Tumor Size, Mean” value (DU145 xenograft tumor; Alisertib low dose 15 mg/kg alone, week 7)?
A: 7.54

Q: And the “tumor growth (FIG. 5A)” value (DU145 xenograft tumor; decitabine alone, alisertib high and low dose alone, combinations concurrent or primed, low and high dose alisertib)?
A: continued to grow at a significant rate

Q: And the “xenograft tissue growth or survival compared to the vehicle control” value (DU145 xenograft tumor; single agent therapy at the doses tested (decitabine 0.75 mg/kg; alisertib 15 or 25 mg/kg))?
A: did not significantly alter

Q: What about the “AST and ALT (liver function)” value [2] of the same molecule?
A: elevated

Q: What about the “Caspase 3A staining (apoptosis)” value [3] of the same molecule?
A: almost no alteration

Q: And the “KI-67 staining (cell proliferation)” value [3]?
A: almost no alteration

Q: What about the DNMT3B levels (DNMT3B) of the same molecule?
A: significantly reduce

Q: What about the DNMT1 levels (DNMT1) of the same molecule?
A: did not significantly affect

Q: What about the DNMT3A levels (DNMT3A) of the same molecule?
A: did not significantly affect

Q: And the “percent of CpG Satellite 2 methylation” value (Satellite 2 sequences)?
A: 40.6%
